“And” between values parts separate entries of the source, which are not always exact repeats. Identical values can stand only once. Strand notation (5' to 3'): a small letter for the sugar, then the base; units joined by * are phosphorothioate-linked, units joined directly phosphodiester-linked; [ ] holds rarer units or linkages, { } end groups; capitals alone tell only the bases. k = constrained ethyl (cEt); [5mC] = 5-methylcytosine; d = 2'-deoxy (DNA)

The subject of data set [1] is Yap1 mRNA. In words: Dose-dependent inhibition of human Yap1 in A-431 cells (Example 6, 5,000 cells per well, RTS4814). It counts as cell-based. The following applies: Table 53, A-431 cells. Put shortly:
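A-431 cells (5,000/well) took up oligonucleotides by free uptake at various doses for about 48 h. Yap1 mRNA was measured by RT-PCR (RTS4814), normalised to RIBOGREEN total RNA and expressed as % untreated control; IC50 by linear regression on a log/linear plot.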

Data set [2] can be described thus: Tolerability in Balb/c mice, plasma chemistry markers (Example 10). It counts as in vivo. The following applies: male Balb/c mice, 50 mg/kg subcutaneously twice a week for four weeks, day 26. How it is done:
(§1) Balb/c mice were treated with modified oligonucleotides selected from studies described above and evaluated for changes in the levels of various plasma chemistry markers.
(§2) Groups of male Balb/c mice at 4-6 weeks of age (obtained from Taconic) were injected subcutaneously twice a week for four weeks (for a total of 8 treatments) with 50 mg/kg of modified oligonucleotides. One group of male Balb/c mice was injected with PBS. Mice were euthanized on day 26 post start of treatment (24 hours following the final administration).

Data set [3] in a line: Tolerability in Balb/c mice, body and organ weights (Example 10). In kind it is in vivo. The settings on record: 50 mg/kg subcutaneously twice a week for four weeks, end of study. On the procedure:
as §2
(§3) Body weights of Balb/c mice were measured at the end of the study, and the average body weight for each group is presented in the table below. Modified oligonucleotides that caused any changes in organ weights outside the expected range for modified oligonucleotides were excluded from further studies.

Data set [4] in a line: Tolerability in Balb/c mice, plasma chemistry markers (Example 11). It counts as in vivo. The following applies: 50 mg/kg subcutaneously twice a week for four weeks. On the procedure:
as §1, §2

Data set [5] in a line: Tolerability in Balb/c mice, body and organ weights (Example 11). It counts as in vivo. The following applies: 50 mg/kg subcutaneously twice a week for four weeks, end of study. How it is done: as §2, §3
Data set [6] in a line: Tolerability in CD-1 mice, plasma chemistry markers (Example 15). The settings on record: male CD-1 mice, 50 mg/kg s.c. twice a week for four weeks (8 treatments), day 26. In kind it is in vivo. How it is done: CD-1 mice were treated with modified oligonucleotides selected from studies described above and evaluated for changes in the levels of various plasma chemistry markers.
(§4) Groups of four male CD-1 mice at 4-5 weeks of age (obtained from Charles River) were injected subcutaneously twice a week for four weeks (for a total of 8 treatments) with 50 mg/kg of modified oligonucleotides. One group of male CD-1 mice was injected with PBS. Mice were euthanized on day 26 post start of treatment (24 hrs following the final administration).

The nature of data set [7]: Tolerability in CD-1 mice, body and organ weights (Example 15). The settings on record: male CD-1 mice, 50 mg/kg s.c. twice a week for four weeks (8 treatments), end of study (day 26). It counts as in vivo. On the procedure:
as §4
Body weights of CD-1 mice were measured at the end of the study, and the average body weight for each group is presented in the table below. Modified oligonucleotides that caused any changes in organ weights outside the expected range for modified oligonucleotides were excluded from further studies.

A short description of data set [8]: Tolerability in Balb/c mice, body and organ weights (Example 12). In kind it is in vivo. The following applies: male Balb/c mice, 50 mg/kg s.c. twice a week for four weeks (8 treatments), end of study (day 26).
In data set [9] the test system is Yap1 mRNA. Description: Antisense inhibition of human Yap1 in SNU-449 cells by modified oligonucleotides, single dose (Example 5, RTS36584). It counts as cell-based. Put shortly:
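Each modified oligonucleotide is applied by free uptake to SNU-449 cultures at 2,000 nM, and total RNA is harvested around 48 h later. Yap1 transcript, quantified with the RTS36584 set and corrected for RIBOGREEN RNA content, is given as % UTC. Asterisks mark sequences overlapping the amplicon.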

Regarding “715487 (kA*kT*kT*dA*d[5mC]*dT*dT*d[5mC]*dA*dT*dA*dG*d[5mC]*kT*kT*kA) [compound 715487]”, it took 1000 nM to reach half-maximal inhibition in [1] (Yap1 mRNA, linear regression on a log/linear plot) (IC50). The “% UTC 148 nM” value in data set [1] (free uptake, 148 nM, approximately 48 hours, RTS4814) turned out to be 87 % UTC. For the same substance, the “% UTC 444 nM” value in [1] (free uptake, 444 nM, approximately 48 hours, RTS4814) amounted to 56 % UTC. In addition, the “% UTC 1333 nM” value in data set [1] (free uptake, 1333 nM, approximately 48 hours, RTS4814) was 48 % UTC. In data set [1] (free uptake, 4000 nM, approximately 48 hours, RTS4814), the “% UTC 4000 nM” value is listed as 29 % UTC. Further, in [2], the “ALT (U/L)” value turned out to be 79 U/L, the “AST (U/L)” value was 96 U/L and the “TBIL” value worked out at 0.13 mg/dL. Also, in [3], the Kidney weight is reported as 0.36 g, the Liver weight was 1.24 g, the Spleen weight was determined as 0.14 g and the body weight came to 23 g. Further, in data set [4], the ALT is listed as 59 U/L, the AST came out at 81 U/L, the BUN came to 16 mg/dL and the TBIL is 0.18 mg/dL. Besides, in data set [5], the Kidney weight is 0.42 g, the Liver weight was 1.46 g, the Spleen weight amounted to 0.15 g and the body weight is on record as 27 g. In [6], the ALB was determined as 1.9 g/dL, the ALT was 66 U/L and the AST worked out at 113 U/L. Moreover, in data set [7], the Kidney weight is 0.59 g, the Liver weight came out at 2.24 g, the Spleen weight came to 0.21 g and the body weight turned out to be 41 g.

As for “958499 (ATTAGAGTATGTGGCA; 3-10-3 cEt gapmer, further chemistry not given here) [compound 958499]”, in data set [8], the Kidney weight worked out at 0.32 g, the Liver weight came out at 1.44 g, the Spleen weight was 0.14 g and the body weight turned out to be 23 g.

As for “958499 (kA*kT*kT*dA*dG*dA*dG*dT*dA*dT*dG*dT*dG*kG*k[5mC]*kA) [Compound 958499]”, the “YAP1 (% UTC)” value is 8 % UTC in data set [9] (Table 39, SNU-449 cells, 10,000 cells per well, free uptake, 2,000 nM oligonucleotide, approx. 48 hours, RTS36584, normalized to RIBOGREEN, Yap1 mRNA relative to untreated control); 15 % UTC in data set [9] (Table 40 (separate experiment), SNU-449 cells, 10,000 cells per well, free uptake, 2,000 nM oligonucleotide, approx. 48 hours, RTS36584, normalized to RIBOGREEN, Yap1 mRNA relative to untreated control); 14 % UTC in [9] (Table 41, SNU-449 cells, 10,000 cells per well, free uptake, 2,000 nM modified oligonucleotide, approximately 48 hours, RTS36584, normalized to RIBOGREEN, Yap1 mRNA relative to untreated control cells); 15 % UTC in [9] (Table 42 (separate experiment), SNU-449 cells, 10,000 cells per well, free uptake, 2,000 nM modified oligonucleotide, approximately 48 hours, RTS36584, normalized to RIBOGREEN, Yap1 mRNA relative to untreated control cells); 14 % UTC in data set [9] (Table 43 experiment, SNU-449 cells, 10,000 cells per well, free uptake, 2,000 nM, approximately 48 hours, RTS36584, Yap1 mRNA normalized to RIBOGREEN, relative to untreated control cells); 9 % UTC in [9] (Table 44 experiment, SNU-449 cells, 10,000 cells per well, free uptake, 2,000 nM, approximately 48 hours, RTS36584, Yap1 mRNA normalized to RIBOGREEN, relative to untreated control cells). The “YAP1 (% UTC)” value in data set [9] (Table 45, Yap1 mRNA as percent of untreated control, SNU-449 cells, single dose) is on record as 15 % UTC. Moreover, the “YAP1 (% UT)” value in data set [9] (Table 46, Yap1 mRNA as percent of untreated control, SNU-449 cells, single dose) is 16 % UT; in data set [9] (Table 48, Yap1 mRNA level relative to untreated control, modified oligonucleotides targeting SEQ ID NO.: 1 and 2), 15 % UT; in data set [9] (Table 49, Yap1 mRNA level relative to untreated control, modified oligonucleotides targeting SEQ ID NO.: 1 and 2), 13 % UT; in data set [9] (Table 50, Yap1 mRNA remaining as percent of untreated control (UT), SNU-449 cells, single dose), 12 % UT; in data set [9] (Table 51, Yap1 mRNA remaining as percent of untreated control (UT), SNU-449 cells, single dose) it was 9 % UT; in data set [9] (Table 52, Yap1 mRNA, modified oligonucleotides targeting SEQ ID NO: 1 and 2) it was 14 % UT. Further, the “YAP1 (% UT)” value in data set [9] (Yap1 mRNA, percent of untreated control, modified oligonucleotides targeting SEQ ID NO: 1 and 2, Table 47) was 17 % UT and 10 % UT.

A word on the IC50: it is the concentration that inhibits the measured activity by half. The low end stands for greater potency, the high end for weaker potency.

The values are drawn from patent US11214803B2, “Modulators of YAP1 expression” (Ionis Pharmaceuticals, Inc., priority 2019, dated 2022).
